Experiments:
[1] = tested on: Blumeria graminis f. sp. tritici (Erysiphe graminis f. sp. tritici); test: Blumeria graminis f. sp. tritici / wheat / leaf disc preventative (powdery mildew on wheat); assay type: in vivo; conditions: foliar, wheat leaf segments cv. Kanzler, inoculated 1 day after application, assessed 6-8 days after application, read-out: control of Blumeria graminis (percent disease control compared to untreated)
Protocol: Blumeria Graminis f. Sp. Tritici (Erysiphe Graminis f. Sp. Tritici)/Wheat/Leaf Disc Preventative (Powdery Mildew on Wheat):
Wheat leaf segments cv. Kanzler were placed on agar in a 24-well plate and sprayed with the formulated test compound diluted in water at an application rate of 200 ppm. The leaf disks were inoculated by shaking powdery mildew infected plants above the test plates 1 day after application. The inoculated leaf disks were incubated at 20° C. and 60% relative humidity under a light regime of 24 h darkness followed by 12 h/12 h (dark/light) in a climate chamber and the activity of a compound was assessed as percent disease control compared to untreated when an appropriate level of disease damage appears on untreated check leaf segments (6-8 days after application). The following compounds gave at least 80% control of Blumeria graminis: […]

[2] = tested on: Puccinia recondita f. sp. tritici; test: Puccinia recondita f. sp. tritici / wheat / leaf disc preventative (brown rust); assay type: in vivo; conditions: foliar, wheat leaf segments cv Kanzler, inoculated 1 day after application, assessed 7-9 days after application, read-out: control of Puccinia recondita f. sp. tritici, preventative (percent disease control compared to untreated)
Protocol: Puccinia Recondita f. Sp. Tritici/Wheat/Leaf Disc Preventative (Brown Rust): Wheat leaf segments cultivated variety (cv) Kanzler were placed on agar in 24-well plates and sprayed with formulated test compound diluted in water at an application rate of 200 ppm. The leaf disks were inoculated with a spore suspension of the fungus 1 day after application. The inoculated leaf segments were incubated at 19° C. and 75% relative humidity under a light regime of 12/12 h (light/dark) in a climate cabinet and the activity of a compound was assessed as percent disease control compared to untreated when an appropriate level of disease damage appears in untreated check leaf segments (7-9 days after application).

[3] = tested on: Puccinia recondita f. sp. tritici; test: Puccinia recondita f. sp. tritici / wheat / leaf disc curative (brown rust); assay type: in vivo; conditions: foliar, 200 ppm applied 1 day after inoculation, wheat leaf segments cv Kanzler, assessed 6-8 days after application, read-out: control of Puccinia recondita f. sp. tritici, curative (percent disease control compared to untreated)
Protocol: Puccinia Recondita f. Sp. Tritici/Wheat/Leaf Disc Curative (Brown Rust): Wheat leaf segments cv Kanzler were placed on agar in 24-well plates. The leaf segments were inoculated with a spore suspension of the fungus. The plates were stored in darkness at 19° C. and 75% relative humidity. The formulated test compound diluted in water was applied at an application rate of 200 ppm 1 day after inoculation.

[4] = tested on: Phaeosphaeria nodorum (Septoria nodorum); test: Phaeosphaeria nodorum (Septoria nodorum) / wheat / leaf disc preventative (glume blotch); assay type: in vivo; conditions: Parastagonospora nodorum, foliar, wheat leaf segments cv Kanzler, inoculated 2 days after application, assessed 5-7 days after application, read-out: control of Phaeosphaeria nodorum (percent disease control compared to untreated)
Protocol: Phaeosphaeria Nodorum (Septoria nodorum)/Wheat/Leaf Disc Preventative (Glume Blotch): Wheat leaf segments cv Kanzler were placed on agar in a 24-well plate and sprayed with formulated test compound diluted in water at an application rate of 200 ppm. The leaf disks are inoculated with a spore suspension of the fungus 2 days after application. The inoculated test leaf disks are incubated at 20° C. and 75% relative humidity under a light regime of 12/12 h (light/dark) in a climate cabinet and the activity of a compound is assessed as percent disease control compared to untreated when an appropriate level of disease damage appears in untreated check leaf disks (5-7 days after application).

Pyrenophora teres = Pyrenophora teres / barley / leaf disc preventative (net blotch); assay type: in vivo; conditions: foliar, barley leaf segments cv Hasso, inoculated two days after application, assessed 5-7 days after application, read-out: control of Pyrenophora teres (disease control compared to untreated)
Protocol: Pyrenophora Teres/Barley/Leaf Disc Preventative (Net Blotch): Barley leaf segments cv Hasso are placed on agar in a 24-well plate and sprayed with formulated test compound diluted in water at an application rate of 200 ppm. The leaf segments are inoculated with a spore suspension of the fungus two days after application of the test solution. The inoculated leaf segments are incubated at 20° C. and 65% relative humidity under a light regime of 12/12 h (light/dark) in a climate cabinet and the activity of a compound is assessed as disease control compared to untreated when an appropriate level of disease damage appears in untreated check leaf segments (5-7 days after application).

Alternaria solani = Alternaria solani / tomato / leaf disc (early blight); assay type: in vivo; conditions: foliar, tomato leaf disks cv. Baby, inoculated 2 days after application, assessed 5-7 days after application, read-out: control of Alternaria solani (percent disease control compared to untreated)
Protocol: Alternaria Solani/Tomato/Leaf Disc (Early Blight): Tomato leaf disks cv. Baby are placed on agar in multiwell plates (24-well format) and sprayed with the formulated test compound diluted in water at an application rate of 200 ppm. The leaf disks are inoculated with a spore suspension of the fungus 2 days after application. The inoculated leaf disks are incubated at 23° C./21° C.

Pythium ultimum = Pythium ultimum / liquid culture (seedling damping off); assay type: cell-based; conditions: Globisporangium ultimum, PDB potato dextrose broth, 24° C., 2-3 days after application, read-out: control of Pythium ultimum (inhibition of growth, photometrically)
Protocol: Pythium Ultimum/Liquid Culture (Seedling Damping Off): Mycelia fragments and oospores of a newly grown liquid culture of the fungus were directly mixed into nutrient broth (PDB potato dextrose broth). After placing a DMSO solution of test compound into a 96 well microtiter plate at an application rate 200 ppm, the nutrient broth containing the fungal mycelia/spore mixture was added. The test plates were incubated at 24° C. and the inhibition of growth was determined photometrically 2-3 days after application.

[5] = tested on: Botryotinia fuckeliana (Botrytis cinerea); test: Botryotinia fuckeliana (Botrytis cinerea) / liquid culture (gray mould); assay type: cell-based; conditions: Vogels broth, 24° C., 3-4 days after application, read-out: control of Botryotinia fuckeliana (inhibition of growth, photometrically)
Protocol: Botryotinia Fuckeliana (Botrytis cinerea)/Liquid Culture (Gray Mould): Conidia of the fungus from cryogenic storage were directly mixed into nutrient broth (Vogels broth). After placing a DMSO solution of test compound into a 96-well microtiter plate at an application rate 200 ppm, the nutrient broth containing the fungal spores was added. The test plates were incubated at 24° C. and the inhibition of growth was determined photometrically 3-4 days after application.

Phytophthora infestans = test: whole plant or invertebrate; assay type: in vivo; conditions: in Solanum lycopersicum, foliar, read-out: control of Phytophthora infestans (percent disease control compared to untreated)
Plasmopara viticola = test: whole plant or invertebrate; assay type: in vivo; conditions: foliar, read-out: control of Plasmopara viticola (percent disease control compared to untreated)
[6] = tested on: Magnaporthe grisea (Pyricularia oryzae); test: whole plant or invertebrate; assay type: in vivo; conditions: foliar, read-out: control of Magnaporthe grisea (percent disease control compared to untreated)
[7] = tested on: Thanatephorus cucumeris (Rhizoctonia solani); test: Thanatephorus cucumeris (Rhizoctonia solani) / liquid culture (foot rot, damping-off); assay type: cell-based; conditions: PDB potato dextrose broth, 24° C., 3-4 days after application, read-out: control of Thanatephorus cucumeris (inhibition of growth, photometrically)
Protocol: Thanatephorus Cucumeris (Rhizoctonia solani)/Liquid Culture (Foot Rot, Damping-Off): Mycelia fragments of a newly grown liquid culture of the fungus are directly mixed into nutrient broth (PDB potato dextrose broth). After placing a DMSO solution of the test compounds into a 96-well microtiter plate at an application rate 200 ppm, the nutrient broth containing the fungal material was added. The test plates were incubated at 24° C. and the inhibition of growth was determined photometrically 3-4 days after application.

Sclerotinia sclerotiorum = Sclerotinia sclerotiorum / liquid culture (cottony rot); assay type: cell-based; conditions: PDB potato dextrose broth, 24° C., 3-4 days after application, read-out: control of Sclerotinia sclerotiorum (inhibition of growth, photometrically)
Protocol: Sclerotinia Sclerotiorum/Liquid Culture (Cottony Rot) Mycelia fragments of a newly grown liquid culture of the fungus are directly mixed into nutrient broth (PDB potato dextrose broth). After placing a (DMSO) solution of test compound into a microtiter plate at an application rate 200 ppm (96-well format) the nutrient broth containing the fungal material is added. The test plates are incubated at 24° C. and the inhibition of growth is determined photometrically 3-4 days after application.

C=C(CO/N=C1\CCCc2ccc(C)nc21)CO/N=C1\CCCc2ccc(C)nc21 [P.07]
≥ 80%: pest or weed control at 200 ppm [1] | pest or weed control at 200 ppm [2] | pest or weed control at 200 ppm [3] | pest or weed control at 200 ppm [4] | pest or weed control at 200 ppm (Pyrenophora teres) | pest or weed control at 200 ppm (Alternaria solani) | inhibition at 200 ppm (Pythium ultimum) | inhibition at 200 ppm [5]

CCC(CO/N=C1\CCCc2ccc(C)nc21)CO/N=C1\CCCc2ccc(C)nc21 [P.10]
≥ 80%: pest or weed control at 200 ppm (Phytophthora infestans) | pest or weed control at 200 ppm (Plasmopara viticola) | pest or weed control at 200 ppm [1] | pest or weed control at 200 ppm [2] | pest or weed control at 200 ppm [3] | pest or weed control at 200 ppm [4] | pest or weed control at 200 ppm (Pyrenophora teres) | pest or weed control at 200 ppm (Alternaria solani) | inhibition at 200 ppm (Pythium ultimum) | inhibition at 200 ppm [5]

Cc1ccc2c(n1)/C(=N/OCC(C)(C)CO/N=C1\CCCc3cccnc31)CCC2 [P.23]
≥ 80%: pest or weed control at 200 ppm (Phytophthora infestans) | pest or weed control at 200 ppm [1] | pest or weed control at 200 ppm [2] | pest or weed control at 200 ppm [3] | pest or weed control at 200 ppm [4] | pest or weed control at 200 ppm (Pyrenophora teres) | inhibition at 200 ppm (Pythium ultimum)

CCOc1cc(C)nc2c1CCC/C2=N\OCCCO/N=C1\CCCc2ccc(C)nc21 [P.32]
≥ 80%: pest or weed control at 200 ppm (Phytophthora infestans) | pest or weed control at 200 ppm (Plasmopara viticola) | pest or weed control at 200 ppm [1] | pest or weed control at 200 ppm [2] | pest or weed control at 200 ppm [6] | pest or weed control at 200 ppm [4] | pest or weed control at 200 ppm (Pyrenophora teres) | inhibition at 200 ppm [5]

Cc1ccc2c(n1)/C(=N/OCCCO/N=C1\CCCc3ccc(C)nc31)CCC2 [P.05]
≥ 80%: pest or weed control at 200 ppm (Phytophthora infestans) | pest or weed control at 200 ppm [1] | pest or weed control at 200 ppm [2] | pest or weed control at 200 ppm [3] | pest or weed control at 200 ppm [4] | pest or weed control at 200 ppm (Pyrenophora teres) | pest or weed control at 200 ppm (Alternaria solani) | inhibition at 200 ppm (Pythium ultimum) | inhibition at 200 ppm [5]

Cc1ccc2c(n1)/C(=N/OCCCO/N=C1\CCCc3c(-c4ccccc4)cc(C)nc31)CCC2 [P.31]
≥ 80%: pest or weed control at 200 ppm (Plasmopara viticola) | pest or weed control at 200 ppm [1] | pest or weed control at 200 ppm [2] | pest or weed control at 200 ppm [3] | pest or weed control at 200 ppm [4] | pest or weed control at 200 ppm (Pyrenophora teres) | pest or weed control at 200 ppm (Alternaria solani) | inhibition at 200 ppm (Pythium ultimum) | inhibition at 200 ppm [5] | inhibition at 200 ppm [7]

Cc1ccc2c(n1)/C(=N/OCCCO/N=C1\CCCc3c(C)cc(C)nc31)CCC2 [P.30]
≥ 80%: pest or weed control at 200 ppm (Phytophthora infestans) | pest or weed control at 200 ppm (Plasmopara viticola) | pest or weed control at 200 ppm [1] | pest or weed control at 200 ppm [2] | pest or weed control at 200 ppm [3] | pest or weed control at 200 ppm [6] | pest or weed control at 200 ppm [4] | pest or weed control at 200 ppm (Pyrenophora teres) | pest or weed control at 200 ppm (Alternaria solani) | inhibition at 200 ppm (Pythium ultimum) | inhibition at 200 ppm [5] | inhibition at 200 ppm [7]

Cc1ccc2c(n1)/C(=N/OC[Si](C)(C)CO/N=C1\CCCc3ccc(C)nc31)CCC2 [P.20]
≥ 80%: pest or weed control at 200 ppm [1] | pest or weed control at 200 ppm [2] | pest or weed control at 200 ppm [3] | pest or weed control at 200 ppm [4] | pest or weed control at 200 ppm (Pyrenophora teres) | pest or weed control at 200 ppm (Alternaria solani) | inhibition at 200 ppm (Pythium ultimum) | inhibition at 200 ppm [5] | inhibition at 200 ppm [7]

Cc1ccc2c(n1)/C(=N/OCCCO/N=C1\CCCc3c(C(F)F)cc(C)nc31)CCC2 [P.46]
≥ 80%: pest or weed control at 200 ppm [1] | pest or weed control at 200 ppm [2] | pest or weed control at 200 ppm [3] | pest or weed control at 200 ppm [6] | pest or weed control at 200 ppm [4] | pest or weed control at 200 ppm (Pyrenophora teres) | inhibition at 200 ppm (Pythium ultimum) | inhibition at 200 ppm [5] | inhibition at 200 ppm (Sclerotinia sclerotiorum)

Cc1ccc2c(n1)/C(=N/OCC(C)CO/N=C1\CCCc3ccc(C)nc31)CCC2 (stereo not shown) [P.09]
≥ 80%: pest or weed control at 200 ppm (Phytophthora infestans) | pest or weed control at 200 ppm [1] | pest or weed control at 200 ppm [2] | pest or weed control at 200 ppm [3] | pest or weed control at 200 ppm [4] | pest or weed control at 200 ppm (Pyrenophora teres) | pest or weed control at 200 ppm (Alternaria solani) | inhibition at 200 ppm (Pythium ultimum) | inhibition at 200 ppm [5]

Cc1ccc2c(n1)/C(=N/OCC(C)(C)CO/N=C1\CCCc3ccc(C)nc31)CCC2 [P.02]
≥ 80%: pest or weed control at 200 ppm (Phytophthora infestans) | pest or weed control at 200 ppm [1] | pest or weed control at 200 ppm [2] | pest or weed control at 200 ppm [3] | pest or weed control at 200 ppm [4] | pest or weed control at 200 ppm (Pyrenophora teres) | inhibition at 200 ppm (Pythium ultimum) | inhibition at 200 ppm [5] | inhibition at 200 ppm [7]
